≈ marks a conversion by molar mass, not a printed value. Calls of active or inactive are those of the source. No cut-off for these calls is given here.
Assays:
Type in all cases: functional
[1] = test system: Pseudomonas fluorescens; experiment: Antibacterial activity against Pseudomonas fluorescens S 97 after 24 to 48 hr by two-fold serial dilution method
[2] = test system: Staphylococcus aureus; experiment: Antibacterial activity against Staphylococcus aureus ATCC 25923 after 24 to 48 hr by two-fold serial dilution method
[3] = test system: Fusarium oxysporum; experiment: Antifungal activity against Fusarium oxysporum ATCC 16417 after 24 to 48 hr by two-fold serial dilution method
[4] = test system: Pseudomonas; experiment: Antibacterial activity against Pseudomonas phaseolicola GSPB 2828 after 24 to 48 hr by two-fold serial dilution method
[5] = test system: Aspergillus niger; experiment: Antifungal activity against Aspergillus niger MTCC 282 at 100 ug/ml after 48 hr by agar diffusion method; details: for zone of inhibition at 100 µg/mL: MTCC 282, 48 h, read-out: DIZ
[6] = test system: Staphylococcus aureus; experiment: Antibacterial activity against Staphylococcus aureus ATCC 25923 at 100 ug/ml after 24 hr by agar diffusion method; details: ATCC 25923, 24 h, read-out: DIZ
[7] = test system: Streptococcus pyogenes; experiment: Antibacterial activity against Streptococcus pyogenes ATCC 19615 after 24 to 48 hr by two-fold serial dilution method
[8] = test system: Streptococcus pyogenes; experiment: Antibacterial activity against Streptococcus pyogenes ATCC 19615 at 100 ug/ml after 24 hr by agar diffusion method; details: ATCC 19615, 24 h, read-out: DIZ
[9] = test system: Aspergillus niger; experiment: Antifungal activity against Aspergillus niger MTCC 282 after 24 to 48 hr by two-fold serial dilution method
[10] = test system: Pseudomonas fluorescens; experiment: Antibacterial activity against Pseudomonas fluorescens S 97 at 100 ug/ml after 24 hr by agar diffusion method; details: for zone of inhibition at 100 µg/mL: S 97, 24 h, read-out: DIZ
[11] = test system: Pseudomonas; experiment: Antibacterial activity against Pseudomonas phaseolicola GSPB 2828 at 100 ug/ml after 24 hr by agar diffusion method; details: GSPB 2828, 24 h, read-out: DIZ
[12] = test system: Fusarium oxysporum; experiment: Antifungal activity against Fusarium oxysporum ATCC 16417 at 100 ug/ml after 48 hr by agar diffusion method; details: for zone of inhibition at 100 µg/mL: ATCC 16417, 48 h, read-out: DIZ

Row | Compound | MIC [1] | MIC [2] | MIC [3] | MIC [4] | zone of inhibition at 100 µg/mL [5] | zone of inhibition at 100 µg/mL [6] | MIC [7] | zone of inhibition at 100 µg/mL [8] | MIC [9] | zone of inhibition at 100 µg/mL [10] | zone of inhibition at 100 µg/mL [11] | zone of inhibition at 100 µg/mL [12] | diameter of the inhibition zone (DIZ) [10] | diameter of the inhibition zone (DIZ) [5] | diameter of the inhibition zone (DIZ) [12]
1 | O=c1oc2ccccc2c2nc3c(cc12)CCCC3 | 25 µg/mL (≈ 99.5 µM) | 25 µg/mL (≈ 99.5 µM) | 12.5 µg/mL (≈ 49.7 µM) | 25 µg/mL (≈ 99.5 µM) | 22 mm | 22 mm | 50 µg/mL (≈ 199 µM) | 22 mm | 50 µg/mL (≈ 199 µM) | 17 mm | 20 mm | 26 mm | – | – | –
2 | Cc1ccc2oc(=O)c3cc4c(nc3c2c1)CCC4 | 25 µg/mL (≈ 99.5 µM) | 50 µg/mL (≈ 199 µM) | 12.5 µg/mL (≈ 49.7 µM) | 50 µg/mL (≈ 199 µM) | 24 mm | 18 mm | 50 µg/mL (≈ 199 µM) | 19 mm | 50 µg/mL (≈ 199 µM) | 17 mm | 15 mm | 30 mm | – | – | –
3 | O=c1oc2ccc(Cl)cc2c2nc3c(cc12)CCC3 | 12.5 µg/mL (≈ 46 µM) | 12.5 µg/mL (≈ 46 µM) | > 100 µg/mL | 100 µg/mL (≈ 368 µM) | 32 mm | 26 mm | 12.5 µg/mL (≈ 46 µM) | 24 mm | 25 µg/mL (≈ 92 µM) | 20 mm | 14 mm | 8 mm | – | – | –
4 | O=c1oc2ccc(Cl)cc2c2nc3c(cc12)CCc1ccccc1-3 | 50 µg/mL (≈ 150 µM) | 12.5 µg/mL (≈ 37.5 µM) | 12.5 µg/mL (≈ 37.5 µM) | 50 µg/mL (≈ 150 µM) | 8 mm | 26 mm | 12.5 µg/mL (≈ 37.5 µM) | 23 mm | 100 µg/mL (≈ 300 µM) | 16 mm | 15 mm | 23 mm | – | – | –
5 | Cc1cccc2c1oc(=O)c1cc3c(nc12)-c1ccccc1CC3 | 50 µg/mL (≈ 160 µM) | 12.5 µg/mL (≈ 39.9 µM) | 100 µg/mL (≈ 319 µM) | 50 µg/mL (≈ 160 µM) | 15 mm | 25 mm | 12.5 µg/mL (≈ 39.9 µM) | 20 mm | 50 µg/mL (≈ 160 µM) | 15 mm | 14 mm | 11 mm | – | – | –
6 | O=c1oc2ccc(Cl)cc2c2nc3c(cc12)CCCC3 | – | 12.5 µg/mL (≈ 43.7 µM) | 50 µg/mL (≈ 175 µM) | 50 µg/mL (≈ 175 µM) | 20 mm | 24 mm | 12.5 µg/mL (≈ 43.7 µM) | 23 mm | 50 µg/mL (≈ 175 µM) | – | 18 mm | 16 mm | inactive | – | –
7 | O=c1oc2ccccc2c2nc3c(cc12)CCC3 | 50 µg/mL (≈ 211 µM) | 50 µg/mL (≈ 211 µM) | 50 µg/mL (≈ 211 µM) | 50 µg/mL (≈ 211 µM) | 10 mm | 19 mm | 25 µg/mL (≈ 105 µM) | 20 mm | > 100 µg/mL | 19 mm | 14 mm | 18 mm | – | – | –
8 | Cc1ccc2oc(=O)c3cc4c(nc3c2c1)CCCC4 | 50 µg/mL (≈ 188 µM) | 50 µg/mL (≈ 188 µM) | 50 µg/mL (≈ 188 µM) | 50 µg/mL (≈ 188 µM) | – | 21 mm | 12.5 µg/mL (≈ 47.1 µM) | 25 mm | – | 16 mm | 14 mm | 17 mm | – | inactive | –
9 | C[C@@H]1C[C@@H]([C@H](O)CC2CC(=O)NC(=O)C2)C(=O)[C@@H](C)C1 [CYCLOHEXIMIDE] | – | – | 3.12 µg/mL (≈ 11.1 µM) | – | 42 mm | – | – | – | 6.25 µg/mL (≈ 22.2 µM) | – | – | 43 mm | – | – | –
10 | Cc1cccc2c1oc(=O)c1cc3c(nc12)CCC3 | 50 µg/mL (≈ 199 µM) | 12.5 µg/mL (≈ 49.7 µM) | – | 25 µg/mL (≈ 99.5 µM) | 28 mm | 25 mm | 12.5 µg/mL (≈ 49.7 µM) | 22 mm | 12.5 µg/mL (≈ 49.7 µM) | 14 mm | 19 mm | – | – | – | inactive
11 | O=C(N[C@H](CO)[C@H](O)c1ccc([N+](=O)[O-])cc1)C(Cl)Cl [CHLORAMPHENICOL] | 6.25 µg/mL (≈ 19.3 µM) | 3.12 µg/mL (≈ 9.67 µM) | – | 6.25 µg/mL (≈ 19.3 µM) | – | 42 mm | 3.12 µg/mL (≈ 9.67 µM) | 44 mm | – | 38 mm | 37 mm | – | – | – | –
12 | Cc1ccc2oc(=O)c3cc4c(nc3c2c1)-c1ccccc1CC4 | 25 µg/mL (≈ 79.8 µM) | 50 µg/mL (≈ 160 µM) | 50 µg/mL (≈ 160 µM) | 25 µg/mL (≈ 79.8 µM) | 18 mm | 23 mm | 25 µg/mL (≈ 79.8 µM) | 17 mm | 50 µg/mL (≈ 160 µM) | 18 mm | 18 mm | 17 mm | – | – | –
13 | O=c1oc2ccccc2c2nc3c(cc12)CCc1ccccc1-3 | 25 µg/mL (≈ 83.5 µM) | 25 µg/mL (≈ 83.5 µM) | 100 µg/mL (≈ 334 µM) | 50 µg/mL (≈ 167 µM) | 25 mm | 20 mm | 12.5 µg/mL (≈ 41.8 µM) | 19 mm | 12.5 µg/mL (≈ 41.8 µM) | 19 mm | 16 mm | 10 mm | – | – | –
14 | Cc1cccc2c1oc(=O)c1cc3c(nc12)CCCC3 | 25 µg/mL (≈ 94.2 µM) | 12.5 µg/mL (≈ 47.1 µM) | 100 µg/mL (≈ 377 µM) | 25 µg/mL (≈ 94.2 µM) | 25 mm | 27 mm | 25 µg/mL (≈ 94.2 µM) | 18 mm | 50 µg/mL (≈ 188 µM) | 20 mm | 19 mm | 10 mm | – | – | –
15 | CC(=O)OCC1=C(C(=O)O)N2C(=O)[C@@H](NC(=O)Cc3cccs3)[C@H]2SC1 [CEPHALOTHIN] | 6.25 µg/mL (≈ 15.8 µM) | 6.25 µg/mL (≈ 15.8 µM) | – | 6.25 µg/mL (≈ 15.8 µM) | – | 36 mm | 6.25 µg/mL (≈ 15.8 µM) | 37 mm | – | 37 mm | 38 mm | – | – | – | –

Reference: ChEMBL document CHEMBL3046437, “Synthesis, characterization and biological evaluation of some pyridine and quinoline fused chromenone derivatives” (2012)
